Assay results from a melting point compilation (Tetko et al.).

Row | SMILES | melting point
1 | O=C1c2c(O)cccc2C(C2OC(CO)C(O)C(O)C2O)c2cc(CO)cc(O)c21 (stereo unspecified) | 148 °C
2 | FC(F)(F)C(F)(F)C(F)(F)C(F)(F)C(F)(F)C(F)(F)C(F)(F)C(F)(F)Br | < 25 °C
3 | Nc1cc2ccccc2c2ccccc12 | 138 °C
4 | CP(=O)(c1ccccc1)c1ccccc1 | 113 °C
5 | Fc1ccc(-c2ccc(Br)cc2)cc1 | 95 to 96 °C
6 | BrC(Br)(Br)c1ccc2ccccc2n1 | 128 °C
7 | N#Cc1ccc(F)c(C(F)(F)F)c1 | 68 °C
8 | Cc1cccc(Nc2ccccc2)c1 | 30 °C
9 | CN(C)c1ccc(P(=O)(c2ccc(N(C)C)cc2)c2ccc(N(C)C)cc2)cc1 | 275 to 280 °C
10 | O=C(CCl)Nc1ccc(Br)cc1 | 136 to 137 °C
11 | CCCCCCCCCCCCCCCCCCCCCCC(=O)O | 79 to 80 °C
12 | c1ccc(C2=C(c3ccccc3)NC(c3ccncc3)N2)cc1 | 255 to 265 °C
13 | N#Cc1c(F)c(F)cc(F)c1F | 34 °C
14 | Clc1ccc2c(c1)N=C(N1CCN(C3=Nc4cc(Cl)ccc4Nc4ccccc43)CC1)c1ccccc1N2 | 333 to 335 °C
15 | CN1CCC23CCCCC2C1Cc1ccc(O)cc13 (stereo unspecified) | 198 °C
16 | c1ccc(CNc2ccccn2)cc1 | 95 °C
17 | CC12CCC3C(CC=C4CC(Cl)CCC43C)C1CCC2=O (stereo unspecified) | 157 °C
18 | CCCCCCCCCCCCCCCc1cccc(O)c1O | 59.5 °C
19 | CC#CC1(O)CCC2C3CC(C)C4=CC(=O)CCC4(C)C3CCC21C (stereo unspecified) | 102 °C
20 | COc1ccc(C(O)(c2cncnc2)C2CC2)cc1 (stereo unspecified) | 110 °C
21 | O=[N+]([O-])c1ccc(-c2nnc3n2CN(c2ccccc2[N+](=O)[O-])CS3)cc1 | 183 to 185 °C
22 | O=C1C(c2cccc(C3=[N+]([O-])c4cc([N+](=O)[O-])ccc4C3=O)c2)=[N+]([O-])c2cc([N+](=O)[O-])ccc21 | 287 °C
23 | O=Nc1c(-c2ccc3ccccc3c2)nc2ncccn12 | 249 °C
24 | O=CF | -142 °C
25 | Clc1cccc(Cl)c1-c1nnn[nH]1 | 203 °C
26 | Cc1c(C)c([N+](=O)[O-])c(C)c(C)c1[N+](=O)[O-] | 212 °C
27 | CC(C)CCCC(C)C1CCC2C3CCC4=CC(O)CCC4(C)C3CCC12C (stereo unspecified) | 132 °C

Row | SMILES | melting point
28 | O=S(=O)(Cl)c1cc2ccccc2o1 | 79 to 81 °C
29 | O=[N+]([O-])c1c(Cl)cccc1Cl | 72.5 °C
30 | N#CCN1CCCCC1 | 25 °C
31 | O=C(NC(=S)Nc1ccc(Cl)cc1)c1ccc(-c2ccccc2)cc1 | 165 °C
32 | Cc1ccc(CC#N)cc1 | 18 °C
33 | Brc1ccc2oc3ccccc3c2c1 | 110 °C
34 | O=[N+]([O-])c1ccc(F)cc1Cl | 35 °C
35 | CC(=O)OC1CCC2C3CCC4CC(C(C)=O)CCC4(C)C3CCC12C (stereo unspecified) | 140 °C
36 | C#CCOCc1cc(COCC#C)c(COCC#C)cc1COCC#C | 66 °C
37 | CCCC(Cn1cncn1)c1ccc(Cl)cc1Cl (stereo unspecified) | 60.3 °C
38 | N#C/C(=N/Nc1cc(Cl)ccc1Cl)c1nc(-c2ccccc2)cs1 | 133 °C
39 | N=C1NC(=O)CS1 | 249 °C
40 | O=C(Cl)c1ccccc1I | 30 to 32 °C
41 | O=C(Oc1ccc(Cl)cc1)c1c(Cl)c(Cl)c(C(=O)Oc2ccc(Cl)cc2)c(Cl)c1Cl | 244 °C
42 | Nc1ccccc1C(=O)OCc1ccccc1 | 76 to 78 °C
43 | CCCCCCCCCCCCCCS | 7 °C
44 | Fc1ccc(Br)c(CBr)c1 | 35 °C
45 | N#CC1=C(C#N)C(=O)C(NCCc2ccccc2)=C(Cl)C1=O | 265 to 267 °C
46 | O=Cc1ccccc1N1CCN(c2ccc(C(F)(F)F)cn2)CC1 | 106 to 107 °C
47 | CCC(N)C(O)c1ccccc1 (stereo unspecified) | 79.5 °C
48 | COc1ccc(C=C2C(=O)NC(=O)NC2=O)cc1OC | 265 °C
49 | CC12CCC3C(CCC4CCCCC43C)C1CCC2O (stereo unspecified) | 166 °C
50 | CC(=O)C(=NNc1ccccc1)c1cc(C(=NNc2ccccc2)C(C)=O)c([N+](=O)[O-])cc1[N+](=O)[O-] | 215 °C
51 | c1ccc(C2=NN(c3ccccc3)C2)cc1 | 138 °C
52 | O=CC12CC=CCC1C1CC=CCC1O2 (stereo unspecified) | -80 °C
53 | O=CC(Cl)=Cc1ccccc1 | 20 to 22 °C

Continued, values first:

Row | melting point | SMILES
54 | 217 to 218 °C | CC(C)(C)c1cc(C(=S)NC2CCCCC2)cc(C(C)(C)C)c1O
55 | 200 to 201 °C | NNC(=O)C1SCCN1S(=O)(=O)c1ccc(Cl)cc1 (stereo unspecified)
56 | 82 °C | COc1cc2c(cc1OC)C(C#N)C2 (stereo unspecified)
57 | 73 °C | O=C(Cc1ccccc1)C(=O)C(Br)c1ccccc1 (stereo unspecified)
58 | 214 to 215 °C | O=c1[nH]c2ncccc2o1
59 | 152 °C | Cc1ccc(C(O)(c2ccc(C)cc2)C2(C)CCC(C(=O)O)C(C)(C)O2)cc1 (stereo unspecified)
60 | 250 to 255 °C | O=Cc1ccc(C=CC(=O)O)cc1
61 | 224 °C | Cc1nc2cc([N+](=O)[O-])ccc2[nH]1
62 | 200 °C | Cc1cc(C(=O)O)c(C)[nH]1
63 | 70 °C | CCOC(=O)c1c(C)oc2c(F)c(F)c(F)c(F)c12
64 | 47 to 49 °C | CC(C)(C)OC(=O)N1CCNCC1
65 | 160 °C | COc1ccc2c(=O)c3ccccc3oc2c1CN1CCCCC1
66 | 89 °C | COC(=O)c1cc(C)n(CO)n1
67 | 75.5 °C | CNC(=O)N(C)C
68 | 96 °C | O=C(O)C(O)c1cccc(F)c1 (stereo unspecified)
69 | 112 °C | COc1ccc(C(=O)C(O)c2ccc(OC)cc2)cc1 (stereo unspecified)
70 | 33 to 38 °C | CCC1CC(=O)CC(C)(C)N1O (stereo unspecified)
71 | 83 to 86 °C | O=C(c1ccccc1)c1cc([N+](=O)[O-])ccc1Cl
72 | 67 to 69 °C | CNCc1ccc(-n2ccnc2)cc1
73 | 78 °C | Cc1ccc(S(=O)(=O)OCc2c(F)c(F)c(F)c(F)c2F)cc1
74 | 175 °C | N#Cc1c[nH]nc1N
75 | 35 °C | CCCCCCCCC=CCCCCCCCC(=O)OCC(O)CO (stereo unspecified)
76 | 73 to 77 °C | Cc1onc(-c2ccccc2)c1N=C=S
77 | 66 to 70 °C | Cc1nnsc1-c1onc(C)c1C(=O)Cl
78 | 78 °C | Fc1cc2nsnc2cc1Cl

Row | melting point | SMILES
79 | 226 °C | COc1ccccc1-c1nnc2n1NC(c1ccco1)S2 (stereo unspecified)
80 | 89 to 91 °C | COc1cccc2c1ccn2C
81 | 74 °C | CCOC=C(C#N)S(=O)(=O)c1ccccc1
82 | 130 °C | CCOC(=O)C(CC)c1ccc(C)cc1 (stereo unspecified)
83 | 305 to 307 °C | N#CC1=C(N)n2nc(C(F)(F)F)nc2NC1c1ccc(Cl)cc1Cl (stereo unspecified)
84 | 92 °C | NNC(=O)c1cccc(N)c1
85 | 193 °C | Cc1ccc(NC(=O)C(C(F)(F)F)C(F)(F)F)c(C)c1
86 | 260 °C | CCOC(=O)c1sc2sc(C#N)c(N)c2c1N
87 | 22 to 24 °C | Cc1cc(C)c(N=C=S)cc1C
88 | 297 °C | COc1ccc(-c2cc3c(C#N)c(N)[nH]n3c(=O)c2C#N)cc1
89 | 316 °C | Nc1nn2c(-c3ccccc3)cc(=O)[nH]c2c1/N=N/c1c(Br)cc(Br)cc1Br
90 | 100 °C | O=[N+]([O-])c1cc(O)c(Cl)cc1Cl
91 | 94 °C | CC(C(=O)O)c1cccc(C(=O)c2ccccc2)c1 (stereo unspecified)
92 | 150 to 152 °C | CCCCOc1cc(C(N)=O)ccc1OC
93 | 133 to 135 °C | Cc1nn(C)c2sc(CO)cc12
94 | 68 to 68.5 °C | CN(C)c1ccc(CCC2CCc3ccccc3N2)cc1 (stereo unspecified)
95 | 200 to 202 °C | CSc1nc(N)c(C(=O)c2ccc([N+](=O)[O-])cc2)s1
96 | 253 to 255 °C | C=CC[C@H](N)C(=O)O
97 | 131 °C | NS(=O)(=O)c1ccc(Oc2ccccc2)cc1
98 | 48 °C | COc1ccc(Cl)cc1I
99 | 130 °C | NS(=O)(=O)c1ccc(S(=O)(=O)CCCO)c(F)c1
100 | 230 to 236 °C | O=C(O)CCSC1=CC(=O)C(SCCC(=O)O)=CC1=O
101 | 60 °C | COC(=O)CCC(C)C1CCC2C3C=CC4CCCCC4(C)C3CCC12C (stereo unspecified)
102 | 43.4 °C | CCCSc1ncccc1C(=O)Cl
103 | 234 °C | COC(=O)C1C(O)CCC2CN3CCc4c([nH]c5ccccc45)C3CC21 (stereo unspecified)

Row | melting point | SMILES
104 | 262 °C | Cc1cnc(NS(=O)(=O)c2ccc(N)cc2)nc1
105 | -100 °C | CCSCCO
106 | 208 to 210 °C | CSc1nc(N)nc(C23CC4CC(CC(C4)C2)C3)n1
107 | 92 to 94 °C | Cc1ccc(O)c(C(=O)CC(=O)c2ccccc2)c1
108 | 177 °C | CN(C)C(=O)NC1CC2CC1C1CCCC21 (stereo unspecified)
109 | 215 °C | Cc1[nH]c2nc(C(F)(F)F)nn2c(=O)c1Cl
110 | 117 °C | CC1=Nc2ccc3ccccc3c2C1(C)C
111 | 90 °C | CC(C)=C1C2CCC1c1ccccc12
112 | 210 °C | N=C1SCCN1CC(=O)c1ccc([N+](=O)[O-])cc1
113 | 54 to 56 °C | CCOC(=O)C1C(C)=NN=C1N (stereo unspecified)
114 | 144 °C | CC(=O)C1(C)CCC2C3C=C(C)C4=CC(=O)CCC4(C)C3CCC21C (stereo unspecified)
115 | 264 to 265 °C | OCc1c(Br)c(Br)c(Br)c(Br)c1Br
116 | 193 to 194 °C | CCC(C)/N=C(\C)c1c(O)c2ccccc2n(-c2ccccc2)c1=O (stereo unspecified)
117 | 94 to 95 °C | Cc1cccnc1C(N)=NO
118 | 211 °C | O=[N+]([O-])c1ccc(OC2OC(CO)C(O)C(O)C2O)cc1 (stereo unspecified)
119 | 223 °C | Cc1c(Cl)c(C)c(Cl)c(Cl)c1Cl
120 | 45.5 to 46.5 °C | C=CCOc1cccc(O)c1C(C)=O
121 | -40 °C | CCCC(=O)N(C)C
122 | 135 to 139 °C | Cc1cc(C(=O)O)c(C)o1
123 | 308 to 309 °C | CN(C)c1ccc(/C=C(/C#N)c2nc3ccccc3c(=O)[nH]2)cc1
124 | 88 °C | COc1cc2c(cc1C)C(=O)C2
125 | 70 to 72 °C | COc1ccc(N(C)C(=S)Cl)cc1
126 | 216 °C | C#CC1(OC(C)=O)CCC2C3CCC4=CC(=NO)CCC4C3CCC21CC (stereo unspecified)
